Data as given in patent US20260132129A1 (Genesis Therapeutics, Inc., priority 2022, published 2026).

Biological target: T1, PI3Kα H1047R (T47D cells) (Homo sapiens, UniProt P42336, H1047R)
T1 construct: endogenous in cells; host or cells: T47D cells
Experiment: PI3Kα cellular assay: pAKT HTRF in T47D cells after EGF stimulation
Type: cell-based
Conditions: for IC50: T47D cells (PI3Kα H1047R), pAKT S473 HTRF, EGF stimulation
Outline: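 pAKT read by HTRF in lysates of EGF-stimulated (20 ng/mL, 10 min) T47D H1047R cells. Before stimulation, serum-starved cells (16 h) received compound for 1 h at 37 °C, dosed from 10,000 nM down to 0.5 nM in 3-fold steps.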

T1 sequence (P42336 whole entry H1047R): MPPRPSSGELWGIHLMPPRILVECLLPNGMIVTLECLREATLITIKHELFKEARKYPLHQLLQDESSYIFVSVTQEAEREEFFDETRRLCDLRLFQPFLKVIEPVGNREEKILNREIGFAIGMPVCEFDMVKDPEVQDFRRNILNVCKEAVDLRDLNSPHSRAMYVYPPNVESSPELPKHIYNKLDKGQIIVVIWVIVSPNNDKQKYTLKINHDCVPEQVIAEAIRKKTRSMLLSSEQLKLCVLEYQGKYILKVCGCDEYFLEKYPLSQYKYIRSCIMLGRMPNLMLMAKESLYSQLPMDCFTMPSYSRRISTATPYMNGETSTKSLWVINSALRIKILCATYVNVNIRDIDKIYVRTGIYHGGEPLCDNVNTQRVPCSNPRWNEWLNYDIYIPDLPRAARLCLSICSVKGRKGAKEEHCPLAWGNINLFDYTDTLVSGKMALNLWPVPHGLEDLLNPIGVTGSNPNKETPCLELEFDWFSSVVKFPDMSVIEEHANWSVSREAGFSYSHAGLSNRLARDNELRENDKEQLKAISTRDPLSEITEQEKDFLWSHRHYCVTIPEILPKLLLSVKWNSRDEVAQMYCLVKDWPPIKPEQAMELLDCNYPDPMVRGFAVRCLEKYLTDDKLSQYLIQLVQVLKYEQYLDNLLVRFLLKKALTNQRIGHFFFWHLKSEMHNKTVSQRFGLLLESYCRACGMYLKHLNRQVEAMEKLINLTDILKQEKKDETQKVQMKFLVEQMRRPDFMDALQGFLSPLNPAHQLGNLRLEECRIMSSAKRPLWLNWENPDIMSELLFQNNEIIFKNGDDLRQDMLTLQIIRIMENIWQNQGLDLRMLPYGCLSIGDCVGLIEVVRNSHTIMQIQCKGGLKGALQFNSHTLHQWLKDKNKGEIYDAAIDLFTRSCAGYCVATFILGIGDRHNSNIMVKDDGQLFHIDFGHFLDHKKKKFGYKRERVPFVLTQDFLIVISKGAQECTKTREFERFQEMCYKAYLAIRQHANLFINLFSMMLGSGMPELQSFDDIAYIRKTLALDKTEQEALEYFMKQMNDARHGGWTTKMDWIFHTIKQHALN
T1 sequence (P27986 whole entry partner): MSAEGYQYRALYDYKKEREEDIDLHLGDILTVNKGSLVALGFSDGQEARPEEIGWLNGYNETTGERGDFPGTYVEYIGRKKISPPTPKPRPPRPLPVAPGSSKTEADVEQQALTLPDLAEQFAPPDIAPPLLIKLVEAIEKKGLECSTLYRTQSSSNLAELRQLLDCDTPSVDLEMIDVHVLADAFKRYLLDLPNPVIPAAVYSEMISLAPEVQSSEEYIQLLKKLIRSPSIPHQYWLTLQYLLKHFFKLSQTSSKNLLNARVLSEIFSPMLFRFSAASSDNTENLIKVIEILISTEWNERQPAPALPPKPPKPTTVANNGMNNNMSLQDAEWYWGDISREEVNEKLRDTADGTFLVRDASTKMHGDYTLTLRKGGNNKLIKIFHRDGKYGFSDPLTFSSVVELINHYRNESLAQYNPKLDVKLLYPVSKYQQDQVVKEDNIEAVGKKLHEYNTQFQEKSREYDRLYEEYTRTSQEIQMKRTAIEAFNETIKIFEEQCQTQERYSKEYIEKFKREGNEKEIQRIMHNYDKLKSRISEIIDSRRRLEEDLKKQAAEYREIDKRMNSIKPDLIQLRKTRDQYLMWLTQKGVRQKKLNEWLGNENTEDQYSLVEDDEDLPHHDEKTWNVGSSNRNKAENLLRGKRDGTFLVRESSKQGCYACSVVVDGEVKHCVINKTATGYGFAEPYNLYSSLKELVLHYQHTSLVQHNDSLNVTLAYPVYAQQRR

| T47D pAKT S473 HTRF IC50 (H1047R): T47D (H1047R) selectivity over SKBR3 (WT) | IC50 [nM] | Structure (SMILES) |
| --- | --- | --- |
| A (A denotes >20-fold) |  | Cc1cc(C(C)Nc2ccccc2C(=O)O)c2nc(-c3ccnc(C)c3)c(C)c(=O)n2c1 (stereo not drawn) [Compound 1202] |
| A (A denotes >20-fold) | 100 to 500 | Cc1cc(C(C)Nc2ccccc2C(=O)O)c2nc(-c3cc(C)ncn3)c(C)c(=O)n2c1 (stereo not drawn) [Compound 1203] |
| C (C denotes ≤5-fold) | > 2000 | CC#Cc1nc2c([C@@H](C)Nc3ccccc3C(=O)O)cc(C)cn2c(=O)c1C [Compound 1205] |
| B (B denotes 20-fold≥value>5-fold) | 500 to 2000 | CC#Cc1nc2c([C@H](C)Nc3ccccc3C(=O)O)cc(C)cn2c(=O)c1C [Compound 1206] |
| A (A denotes >20-fold) | 100 to 500 | Cc1cc([C@H](C)Nc2ccccc2C(=O)O)c2nc(N3Cc4ccccc4C3)c(C#N)c(=O)n2c1 [Compound 1208] |
| A (A denotes >20-fold) | < 100 | Cc1cc(C(C)Nc2cccnc2C(=O)O)c2nc(-c3cccc(F)c3)c(C)c(=O)n2c1 (stereo not drawn) [Compound 1223] |
| C (C denotes ≤5-fold) |  | Cc1cc([C@@H](C)Nc2ccccc2C(=O)O)c2nc(C#CC3CC3)cc(=O)n2c1 [Compound 1224] |
| A (A denotes >20-fold) | < 100 | Cc1cc(C(C)Nc2ccccc2C(=O)O)c2nc(-c3cccc(F)c3)c(C3CC3)c(=O)n2c1 (stereo not drawn) [Compound 1231] |
| A (A denotes >20-fold) | < 100 | Cc1cc(C(C)Nc2ccc(F)cc2C(=O)O)c2nc(-c3cccc(F)c3)c(C)c(=O)n2c1 (stereo not drawn) [Compound 1238] |
| A (A denotes >20-fold) | > 2000 | Cc1cc(C(C)Nc2cccnc2C(=O)O)c2nc(-c3ccnc(C4CC4)c3)c(C)c(=O)n2c1 (stereo not drawn) [Compound 1241] |
| A (A denotes >20-fold) |  | Cc1cccc(-c2nc3c(C(C)Nc4ccccc4C(=O)O)cc(C)cn3c(=O)c2C(C)C)c1 (stereo not drawn) [Compound 1245] |
| A (A denotes >20-fold) | 100 to 500 | Cc1cc(C(C)Nc2ccccc2S(N)(=O)=O)c2nc(-c3cccc(F)c3)c(C)c(=O)n2c1 (stereo not drawn) [Compound 1248] |
| A (A denotes >20-fold) | 100 to 500 | Cc1cc(C(C)Nc2ccccc2C(=O)O)c2nc(OC3CCCOC3)c(C)c(=O)n2c1 (stereo not drawn) [Compound 1254] |
| A (A denotes >20-fold) | < 100 | Cc1cc(C(C)Nc2ccccc2C(=O)O)c2nc(-c3ccc(F)cc3)c(C#N)c(=O)n2c1 (stereo not drawn) [Compound 1260] |
| A (A denotes >20-fold) | 100 to 500 | Cc1cc(C(C)Nc2ccccc2S(N)(=O)=O)c2nc(-c3cccnc3)c(C3CC3)c(=O)n2c1 (stereo not drawn) [Compound 1261] |
| A (A denotes >20-fold) | < 100 | CNC(=O)C#Cc1ccc(-c2nc3c([C@@H](C)Nc4ccccc4C(=O)O)cc(C)cn3c(=O)c2C)cc1F [Compound 1264] |
| C (C denotes ≤5-fold) | > 2000 | CNC(=O)C#Cc1ccc(-c2nc3c([C@H](C)Nc4ccccc4C(=O)O)cc(C)cn3c(=O)c2C)cc1F [Compound 1265] |

| T47D pAKT S473 HTRF IC50 (H1047R): T47D (H1047R) selectivity over SKBR3 (WT) | IC50 [nM] | Structure (SMILES) |
| --- | --- | --- |
| C (C denotes ≤5-fold) |  | Cc1cc([C@H](C)Nc2ccccc2C(=O)O)c2nc(-c3ccc(C#CC4(C)CCC4)c(F)c3)c(C)c(=O)n2c1 [Compound 1267] |
| A (A denotes >20-fold) | < 100 | Cc1cc([C@@H](C)Nc2ccccc2C(=O)O)c2nc(-c3ccc(-c4ccc5c(c4)CCO5)c(F)c3)c(C)c(=O)n2c1 [Compound 1268] |
| C (C denotes ≤5-fold) | > 2000 | Cc1cc([C@H](C)Nc2ccccc2C(=O)O)c2nc(-c3ccc(-c4ccc5c(c4)CCO5)c(F)c3)c(C)c(=O)n2c1 [Compound 1269] |
| B (B denotes 20-fold≥value>5-fold) |  | COCC1=NC(C#N)C(NCc2ccc(-c3nc4c([C@H](C)Nc5ccccc5C(=O)O)cc(C)cn4c(=O)c3C)cc2F)O1 (stereo partly drawn) [Compound 1271] |
| A (A denotes >20-fold) | 100 to 500 | Cc1cc(C(C)Nc2ccccc2C(=O)O)c2nc(-c3cnc(C4CCOCC4)nc3)c(C)c(=O)n2c1 (stereo not drawn) [Compound 1272] |
| A (A denotes >20-fold) | 100 to 500 | Cc1cc([C@@H](C)Nc2ccccc2S(=O)(=O)O)c2nc(-c3ccc(C4CC4)cc3)c(C3CC3)c(=O)n2c1 [Compound 1274] |
| C (C denotes ≤5-fold) | > 2000 | Cc1cc([C@H](C)Nc2ccccc2S(=O)(=O)O)c2nc(-c3ccc(C4CC4)cc3)c(C3CC3)c(=O)n2c1 [Compound 1275] |
| C (C denotes ≤5-fold) | < 100 | Cc1cc([C@H](C)Nc2ccccc2C(=O)O)c2nc(-c3ccc(-c4ccc5oc(=O)n(C)c5c4)c(C)c3)c(C)c(=O)n2c1 [Compound 1276] |
| A (A denotes >20-fold) | 100 to 500 | Cc1cc([C@@H](C)Nc2ccccc2C(=O)O)c2nc(-c3cccc(F)c3)c(C(C)C)c(=O)n2c1 [Compound 1277] |
| C (C denotes ≤5-fold) | > 2000 | Cc1cc([C@H](C)Nc2ccccc2C(=O)O)c2nc(-c3cccc(F)c3)c(C(C)C)c(=O)n2c1 [Compound 1278] |
| A (A denotes >20-fold) | < 100 | Cc1cc([C@@H](C)Nc2ccccc2C(=O)O)c2nc([C@H]3CCCOC3)c(C)c(=O)n2c1 [Compound 1279] |
| A (A denotes >20-fold) | < 100 | Cc1cc([C@@H](C)Nc2ccccc2C(=O)O)c2nc([C@@H]3CCCOC3)c(C)c(=O)n2c1 [Compound 1280] |
| B (B denotes 20-fold≥value>5-fold) | 500 to 2000 | Cc1cc([C@H](C)Nc2ccccc2C(=O)O)c2nc([C@@H]3CCCOC3)c(C)c(=O)n2c1 [Compound 1281] |
| C (C denotes ≤5-fold) | > 2000 | Cc1cc([C@H](C)Nc2ccccc2C(=O)O)c2nc([C@H]3CCCOC3)c(C)c(=O)n2c1 [Compound 1282] |
| C (C denotes ≤5-fold) | > 2000 | Cc1cc([C@@H](C)Nc2ccccc2S(N)(=O)=O)c2nc(C3CCCOC3)c(C)c(=O)n2c1 (stereo partly drawn) [Compound 1283] |
| A (A denotes >20-fold) | < 100 | Cc1cc([C@H](C)Nc2ccccc2S(N)(=O)=O)c2nc([C@@H]3CCCOC3)c(C)c(=O)n2c1 [Compound 1285] |
| B (B denotes 20-fold≥value>5-fold) | 500 to 2000 | Cc1cc([C@H](C)Nc2ccccc2S(N)(=O)=O)c2nc([C@H]3CCCOC3)c(C)c(=O)n2c1 [Compound 1286] |
